Data on eleven molecules can be found in PubChem BioAssay (NCI).

Among the test systems are UACC-62 melanoma; KM12 colon; DMS 273 small cell lung; SW-620 colon; OVCAR-4 ovarian; SK-MEL-28 melanoma; RPMI-8226 leukemia; A498 renal; HOP-62 NSCLC; SR leukemia.
Common to all, as to test: inhibition of tumour cell growth, NCI panel, 48 h

Several values for one entry are separate records, joined by “and”; a condition that tells them apart may be missing. Identical values can stand only once.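 1) Cells in 96-well plates. 2) Compound, 48 h, 5 concentrations. 3) Linear interpolation between surrounding doses. 4) Unreached endpoint = highest concentration. Abbreviation: GI50, concentration required for 50% inhibition of growth. Definition used: TGI = concentration required for complete inhibition of growth.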

Regarding `CCCCCCCCCCCC1=C(O)C(=O)C=C(O)C1=O`, the TGI in the assay with UACC-62 melanoma turned out to be 10.5 µM; with KM12 colon, 31.6 µM; with DMS 273 small cell lung, 15.7 µM; in the assay on SW-620 colon, 55.3 µM; in the assay on OVCAR-4 ovarian, 33.2 µM; in the assay on SK-MEL-28 melanoma, 37.5 µM. Also, the TGI was 19.3 µM in the assay with RPMI-8226 leukemia, 20.9 µM in the assay on A498 renal and 12.3 µM in the assay with HOP-62 NSCLC.

Consider `COc1ccc(Sc2ccccc2[N+](=O)[O-])cc1`, for which the TGI in the assay on UACC-62 melanoma, in the assay on KM12 colon, in the assay on SR leukemia, in the assay on DMS 273 small cell lung, with SW-620 colon and with OVCAR-4 ovarian was > 100 µM throughout. Also, the TGI is 46.4 µM in the assay on SK-MEL-28 melanoma, > 100 µM in the assay on RPMI-8226 leukemia, > 100 µM in the assay on A498 renal and > 100 µM in the assay with HOP-62 NSCLC.

On to `Cn1c(=O)c(C#N)c(O)c2cc3ccccc3nc21`, for which the TGI with KM12 colon, in the assay with SR leukemia, in the assay with DMS 273 small cell lung, in the assay with SW-620 colon, in the assay on OVCAR-4 ovarian and with SK-MEL-28 melanoma was > 100 µM in each case. The TGI with RPMI-8226 leukemia was > 100 µM.

For `NS(=O)(=O)c1cc2c(cc1Cl)NC(C(=O)NNC(=O)c1ccncc1)=NS2(=O)=O`, the TGI in the assay with UACC-62 melanoma, with KM12 colon, in the assay on SR leukemia, with DMS 273 small cell lung, with SW-620 colon and in the assay with OVCAR-4 ovarian was > 100 µM each time. Besides, the TGI with SK-MEL-28 melanoma and in the assay on HOP-62 NSCLC was > 100 µM throughout.

`Cc1c(N(Cc2ccccc2)Cc2ccccc2)nc(S(C)(=O)=O)nc1S(C)(=O)=O`: the TGI in the assay with UACC-62 melanoma amounted to 3.16 µM; in the assay with SR leukemia, 4.18 µM; in the assay with DMS 273 small cell lung it was 4.29 µM; in the assay with SW-620 colon it was 3.61 µM; in the assay with RPMI-8226 leukemia, 7.61 µM; in the assay on HOP-62 NSCLC, 28 µM.

On to `CC(=O)OC1C(C)OC(OC2C[C@](O)(C(C)=O)Cc3c(O)c4c(c(O)c32)C(=O)c2ccccc2C4=O)C(F)C1OC(C)=O` (stereo partly drawn), for which the TGI in the assay with UACC-62 melanoma is 2.81 µM; with KM12 colon it was > 100 µM; with SR leukemia it was 0.887 µM; in the assay with SW-620 colon it was > 100 µM; in the assay on OVCAR-4 ovarian it was 41.8 µM; with SK-MEL-28 melanoma, > 31.3 µM. For the same molecule, the results for the TGI in the assay with RPMI-8226 leukemia, in the assay on A498 renal and in the assay with HOP-62 NSCLC were 2.14 µM, 2.87 µM and 13.8 µM, respectively.

Take `O=C1c2sccc2C(=O)c2c(CO)csc21`: the TGI in the assay with UACC-62 melanoma was 5.67 µM; in the assay with KM12 colon, 31.5 µM; in the assay with SR leukemia, > 73.2 µM; with SW-620 colon it was > 86.5 µM; in the assay with OVCAR-4 ovarian it was 9.46 µM; with SK-MEL-28 melanoma, 38.3 µM. Besides, the TGI in the assay with RPMI-8226 leukemia was > 100 µM; in the assay on A498 renal, 31.8 µM; in the assay on HOP-62 NSCLC, 25.5 µM.

In the case of `N/N=C(\N)SCc1ccc(N=C=S)cc1`, the TGI in the assay with UACC-62 melanoma, in the assay with KM12 colon, in the assay on SR leukemia, with SW-620 colon, in the assay with OVCAR-4 ovarian and in the assay with SK-MEL-28 melanoma was > 100 µM each time. Also, the TGI in the assay on RPMI-8226 leukemia, with A498 renal and in the assay with HOP-62 NSCLC was > 100 µM each time.

`Cc1ccc(C)c(C(=O)CC2OC(O)C(Cl)C2Cl)c1` (stereo not drawn): the TGI in the assay on UACC-62 melanoma is > 100 µM; with KM12 colon, > 100 µM; in the assay with SR leukemia it was > 100 µM; with DMS 273 small cell lung, > 100 µM; with SW-620 colon it was 33.5 µM; with OVCAR-4 ovarian it was > 100 µM. For the same molecule, the TGI with SK-MEL-28 melanoma, in the assay on RPMI-8226 leukemia, in the assay on A498 renal and in the assay with HOP-62 NSCLC was > 100 µM in each case.

`CNC(=O)N(C)C(=O)c1ccccc1C(=O)N(C)C(=O)NC`: the TGI in the assay with UACC-62 melanoma, with KM12 colon, in the assay with SR leukemia, in the assay with SW-620 colon, with OVCAR-4 ovarian and in the assay on SK-MEL-28 melanoma was > 10 µM throughout. Moreover, the TGI in the assay with RPMI-8226 leukemia, in the assay on A498 renal and in the assay on HOP-62 NSCLC was > 10 µM throughout.

As to `COC1=C(C)C(=O)C2=C(C1=O)C1C3CC4=C(C(=O)C(OC)=C(C)C4=O)C(CNC(=O)C(C)=O)N3C(C#N)C(C2)N1C` (stereo not drawn), the GI50 in the assay on UACC-62 melanoma was 0.000111 µM; with DMS 273 small cell lung it was 0.0259 nM; in the assay with SK-MEL-28 melanoma, 0.000169 µM; in the assay on A498 renal it was 0.0634 µM. The TGI is 0.000825 µM and 0.0075 µM in the assay with UACC-62 melanoma; 0.0313 µM and 0.0726 µM in the assay on KM12 colon; 0.297 µM and 0.125 µM in the assay with SW-620 colon.
